Experimental data as given in patent US9376454B2, “Beta-lactamase inhibitors” (priority 2013, dated 2016).

Columns and labels:
Type in all cases: biochemical
SHV-5 β-lactamase = molecular target: T1, SHV-5 β-lactamase (Klebsiella pneumoniae, UniProt P0A3M1); assay: β-Lactamase inhibition enzyme assay, SHV-5
T1 construct: made in house; host or cells: E. coli BL21(DE3)
Protocol: (§1) For SHV-5, Kpc-2, p99AmpC and OXA-1 β-lactamases, E. coli BL21(DE3) bacterial cells carrying expression plasmids (expressed as native untagged proteins) for the individual β-lactamases were grown in 1 L of Superbroth (Teknova Inc. Hollister, Calif.) supplemented with 100 μg/ml kanamycin selection and 1×5052 (0.5% glycerol, 0.05% glucose and 0.2% α-lactose) at 35° C. for 18-20 hours. Cells were harvested by centrifugation (4,000×g, 4° C., 20 min), resuspended in 50 ml of 10 mM HEPES pH 7.5 ( 1/20 of the initial volume). The cells were lysed by sonication (5 pulses of 45 seconds) at 45 W on ice. The lysates were clarified by centrifugation at 10,000×g for 40 minutes at 4° C. Samples were diluted 5-fold in 50 mM sodium acetate pH 5.0, stored overnight at 4° C., after which they were centrifuged at 10,000×g for 30 minutes to clarify, and filtered through 0.45 μm filters. The samples were loaded onto a 5 ml Capto S sepharose cation exchange column (GE Healthcare) pre-equilibrated with 50 mM sodium acetate pH 5.0. The column was washed with 5 column volumes of 50 mM sodium acetate pH 5.0 to wash out unbound protein and a linear gradient of NaCl (0 to 500 mM) was used to elute the protein (over 16 CV) from the column. Fractions were assayed for β-lactamase activity using Centa (Calbiochem, Gibbstown, N.J.) or Nitrocefin (EMD Millipore chemicals, Darmstadt, Germany) as a reporter β-lactamase substrate for activity in the isolated fractions. Active fractions were pooled, concentrated and further purified by gel filtration chromatography on a Superdex 75 prep grade gel filtration column (GE Healthcare, Piscataway, N.J.) pre-equilibrated in 50 mM Hepes pH 7.5, 150 mM NaCl. Active fractions were pooled concentrated, quantitated by BCA protein determination (Thermo Scientific, Rockford, Ill.), dialyzed into PBS and frozen at −80° C. in 20% glycerol until use.
(§2) An equal volume of diluted enzyme stock was added, and the plates were incubated at 37° C. for 15 min. Nitrocefin was used as substrate for p99 AmpC, VIM-2 and OXA-1 and dispensed into each well at a final concentration of 100 μM. Absorbance at 486 nm was immediately monitored for 10 min using a Biotek Powerwave XS2 microplate spectrophotometer using the GEN5 softweare package (Biotek Instruments, Winooski Vt.). In an analogous fashion, imipenem was used as substrate for Kpc-2 and Cefotaxime was used for SHV-5, while changes in absorbance upon hydrolysis of the β-lactam ring were monitored at 300 nm and 260 nm respectively in UV-transparent 96-well microtiter assay plates. Maximum rates of hydrolysis were compared to those in control wells (without inhibitors), and percentages of enzyme inhibition were calculated for each concentration of inhibitor. The concentration of inhibitor needed to reduce the initial rate of hydrolysis of substrate by 50% (IC50) was calculated as the residual activity of β-lactamase at 486 nm using GraFit version 7 kinetics software package (Erithacus Software, Surrey, UK).

KPC-2 β-lactamase = molecular target: T2, KPC-2 β-lactamase (Klebsiella pneumoniae, UniProt Q9F663); assay: β-Lactamase inhibition enzyme assay, KPC-2; conditions: imipenem as substrate, 300 nm; 15 min at 37° C. with enzyme, PBS pH 7.4; read-out: Class A KPC-2 IC50
T2 construct: made in house; host or cells: E. coli BL21(DE3)
Protocol: as §1, §2

[1] = molecular target: T3, VIM-2 metallo β-lactamase (Pseudomonas aeruginosa, UniProt Q9K2N0); assay: β-Lactamase inhibition enzyme assay, VIM-2; conditions: Nitrocefin 100 μM as substrate, 486 nm; 15 min at 37° C. with enzyme, PBS pH 7.4; read-out: Class B VIM-2 IC50
T3 construct: made in house; host or cells: E. coli BL21(DE3)
Protocol: as §1
For Vim-2 metallo β-lactamase, the procedure was identical with the following exceptions, first the protein was not pH adjusted to pH 5 with 50 mM sodium acetate, second, the chromatography step was changed to a 5 ml Q sepharose anion exchange column pre-equilibrated with 50 mM Hepes pH 7.5, and elution of the protein was achieved by a linear gradient of NaCl (0-600 mM). Finally, the VIM-2 purification required a second run (3rd step) on the Q sepharose anion exchange column to achieve acceptable purity (>90%).
as §2

p99 AmpC β-lactamase = molecular target: T4, p99 AmpC β-lactamase (Enterobacter cloacae, UniProt P05364); assay: β-Lactamase inhibition enzyme assay, p99 AmpC
T4 construct: made in house; host or cells: E. coli BL21(DE3)
Protocol: as §1, §2

OXA-1 β-lactamase = molecular target: T5, OXA-1 β-lactamase (Escherichia coli, UniProt P13661); assay: β-Lactamase inhibition enzyme assay, OXA-1; conditions: Nitrocefin 100 μM as substrate, 486 nm; 15 min at 37° C. with enzyme, PBS pH 7.4; read-out: Class D OXA-1 IC50
T5 construct: made in house; host or cells: E. coli BL21(DE3)
Protocol: as §1, §2

T4 sequence (P05364 21-381): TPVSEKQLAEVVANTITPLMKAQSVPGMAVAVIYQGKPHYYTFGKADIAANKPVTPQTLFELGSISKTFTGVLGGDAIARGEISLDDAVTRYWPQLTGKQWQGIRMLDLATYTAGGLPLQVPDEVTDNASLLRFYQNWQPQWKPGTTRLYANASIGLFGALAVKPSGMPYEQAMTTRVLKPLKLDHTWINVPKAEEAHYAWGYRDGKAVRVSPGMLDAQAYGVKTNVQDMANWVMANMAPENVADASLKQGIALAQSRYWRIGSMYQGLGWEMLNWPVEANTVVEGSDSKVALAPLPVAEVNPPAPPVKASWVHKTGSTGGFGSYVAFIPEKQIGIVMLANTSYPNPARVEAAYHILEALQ
T1 sequence (P0A3M1 22-286): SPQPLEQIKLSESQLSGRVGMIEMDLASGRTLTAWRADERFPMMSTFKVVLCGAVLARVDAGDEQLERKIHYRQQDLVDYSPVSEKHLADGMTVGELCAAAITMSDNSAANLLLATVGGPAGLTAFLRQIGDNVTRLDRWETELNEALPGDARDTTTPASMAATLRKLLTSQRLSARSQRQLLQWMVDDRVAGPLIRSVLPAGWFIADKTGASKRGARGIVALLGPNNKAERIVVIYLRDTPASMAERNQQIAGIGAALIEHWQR
T2 sequence (Q9F663 25-293, looked up): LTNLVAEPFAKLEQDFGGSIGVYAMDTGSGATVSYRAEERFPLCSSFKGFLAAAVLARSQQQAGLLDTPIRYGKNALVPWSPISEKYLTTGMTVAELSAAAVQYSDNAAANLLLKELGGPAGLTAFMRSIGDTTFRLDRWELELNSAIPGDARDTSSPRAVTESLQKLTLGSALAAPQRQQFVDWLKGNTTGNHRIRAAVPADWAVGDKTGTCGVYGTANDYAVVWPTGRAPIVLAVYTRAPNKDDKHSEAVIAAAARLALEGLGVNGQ
T5 sequence (P13661 26-276): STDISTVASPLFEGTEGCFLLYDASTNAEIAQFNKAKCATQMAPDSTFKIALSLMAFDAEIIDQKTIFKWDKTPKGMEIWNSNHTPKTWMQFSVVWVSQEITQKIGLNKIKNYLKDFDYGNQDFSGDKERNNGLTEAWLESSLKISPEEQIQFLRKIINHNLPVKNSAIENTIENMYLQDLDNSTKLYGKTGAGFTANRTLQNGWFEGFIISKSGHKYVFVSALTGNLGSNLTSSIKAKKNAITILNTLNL

SMILES	IC50 (SHV-5 β-lactamase)	IC50 (KPC-2 β-lactamase)	IC50 [1]	IC50 (p99 AmpC β-lactamase)	IC50 (OXA-1 β-lactamase)
O=C(O)c1cccc2c1OB(O)[C@@H](NC(=O)c1cccc3[nH]ccc13)C2 [Example 32, (R)-2-Hydroxy-3-[(1H-indole-4-carbonyl)-amino]-3,4-dihydro-2H-benzo[e][1,2]oxaborinine-8-carboxylic acid]	< 100 nM	< 100 nM	100 to 1000 nM	< 100 nM	< 100 nM
O=C(Cc1ccc(O)c(O)c1)N[C@H]1Cc2cccc(C(=O)O)c2OB1O [Example 38, (R)-3-(2-(3,4-dihydroxyphenyl)acetamido)-2-hydroxy-3,4-dihydro-2H-benzo[e][1,2]oxaborinine-8-carboxylic acid]	< 100 nM	< 100 nM	100 to 1000 nM	< 100 nM	< 100 nM
Cn1ccc2ccc(C(=O)N[C@H]3Cc4cccc(C(=O)O)c4OB3O)cc21 [Example 43, (R)-2-Hydroxy-3-[(1-methyl-1H-indole-6-carbonyl)-amino]-3,4-dihydro-2H-benzo[e][1,2]oxaborinine-8-carboxylic acid]	100 to 1000 nM	< 100 nM	100 to 1000 nM	< 100 nM	< 100 nM
O=C(N[C@H]1Cc2cccc(C(=O)O)c2OB1O)c1ccc2cc[nH]c2c1 [Example 30, (R)-2-hydroxy-3-(1H-indole-6-carboxamido)-3,4-dihydro-2H-benzo[e][1,2]oxaborinine-8-carboxylic acid]	100 to 1000 nM	< 100 nM	100 to 1000 nM	< 100 nM	< 100 nM
Cc1ccc(C(=O)N[C@H]2Cc3cccc(C(=O)O)c3OB2O)cc1N [Example 23, (R)-3-(3-amino-4-methylbenzamido)-2-hydroxy-3,4-dihydro-2H-benzo[e][1,2]oxaborinine-8-carboxylic acid]	< 100 nM	< 100 nM	100 to 1000 nM	< 100 nM	< 100 nM
O=C(N[C@H]1Cc2cccc(C(=O)O)c2OB1O)c1cnc2c(c1)CNC2 [Example 50, (3R)-3-(6,7-dihydro-5H-pyrrolo[3,4-b]pyridine-3-carbonylamino)-2-hydroxy-3,4-dihydro-1,2-benzoxaborinine-8-carboxylic acid]	< 100 nM	< 100 nM	100 to 1000 nM	< 100 nM	< 100 nM
CC(C)NCc1ccc(C(=O)N[C@H]2Cc3cccc(C(=O)O)c3OB2O)cc1CNC(C)C [Example 56, (R)-3-(3,4-bis((isopropylamino)methyl)benzamido)-2-hydroxy-3,4-dihydro-2H-benzo[e][1,2]oxaborinine-8-carboxylic acid]	< 100 nM	< 100 nM	100 to 1000 nM	< 100 nM	< 100 nM
CN(C)Cc1ccc(C(=O)N[C@H]2Cc3cccc(C(=O)O)c3OB2O)cc1NC(=O)[C@@H](N)CN [Example 21, (R)-3-(3-((S)-2,3-diaminopropanamido)-4-((dimethylamino)methyl)benzamido)-2-hydroxy-3,4-dihydro-2H-benzo[e][1,2]oxaborinine-8-carboxylic acid]	100 to 1000 nM	< 100 nM	< 100 nM	< 100 nM	< 100 nM
NCCOc1ccc(C(=O)N[C@H]2Cc3cccc(C(=O)O)c3OB2O)cc1O [Example 40, (R)-3-(4-(2-aminoethoxy)-3-hydroxybenzamido)-2-hydroxy-3,4-dihydro-2H-benzo[e][1,2]oxaborinine-8-carboxylic acid]	100 to 1000 nM	< 100 nM	< 100 nM	< 100 nM	< 100 nM
NCc1ccc(CC(=O)N[C@H]2Cc3cccc(C(=O)O)c3OB2O)cc1CN [Example 20, (R)-3-(2-(3,4-bis(aminomethyl)phenyl)acetamido)-2-hydroxy-3,4-dihydro-2H-benzo[e][1,2]oxaborinine-8-carboxylic acid]	< 100 nM	< 100 nM	< 100 nM	< 100 nM	< 100 nM
O=C(N[C@H]1Cc2cccc(C(=O)O)c2OB1O)c1ccc2c(c1)CNC2 [Example 9, (R)-2-hydroxy-3-(isoindoline-5-carboxamido)-3,4-dihydro-2H-benzo[e][1,2]oxaborinine-8-carboxylic acid]	< 100 nM	< 100 nM	< 100 nM	< 100 nM	< 100 nM
O=C(N[C@H]1Cc2cccc(C(=O)O)c2OB1O)c1cnc2[nH]ccc2c1 [Example 35, (R)-2-Hydroxy-3-[(1H-pyrrolo[2,3-b]pyridine-5-carbonyl)-amino]-3,4-dihydro-2H-benzo[e][1,2]oxaborinine-8-carboxylic acid]	< 100 nM	< 100 nM	100 to 1000 nM	< 100 nM	< 100 nM
O=C(N[C@H]1Cc2cccc(C(=O)O)c2OB1O)c1ccc2ncccc2c1 [Example 28, (R)-2-hydroxy-3-(quinoline-6-carboxamido)-3,4-dihydro-2H-benzo[e][1,2]oxaborinine-8-carboxylic acid]	< 100 nM	< 100 nM	1000 to 10000 nM	< 100 nM	< 100 nM
NCc1cnc(C(=O)N[C@H]2Cc3cccc(C(=O)O)c3OB2O)cc1CN [Example 63]	100 to 1000 nM	< 100 nM	< 100 nM	< 100 nM	< 100 nM
NC1=NCc2ccc(C(=O)N[C@H]3Cc4cccc(C(=O)O)c4OB3O)cc2CN1 [Example 17, (R)-3-(3-amino-4,5-dihydro-1H-benzo[e][1,3]diazepine-7-carboxamido)-2-hydroxy-3,4-dihydro-2H-benzo[e][1,2]oxaborinine-8-carboxylic acid]	< 100 nM	< 100 nM	< 100 nM	< 100 nM	< 100 nM
O=C(N[C@H]1Cc2cccc(C(=O)O)c2OB1O)c1ccc(-c2ccccn2)cc1 [Example 24, (R)-2-hydroxy-3-(4-(pyridin-2-yl)benzamido)-3,4-dihydro-2H-benzo[e][1,2]oxaborinine-8-carboxylic acid]	< 100 nM	< 100 nM	100 to 1000 nM	< 100 nM	< 100 nM
NCCn1ccc2c(C(=O)N[C@H]3Cc4cccc(C(=O)O)c4OB3O)cccc21 [Example 42, (R)-3-{[1-(2-Amino-ethyl)-1H-indole-4-carbonyl]-amino}-2-hydroxy-3,4-dihydro-2H-benzo[e][1,2]oxaborinine-8-carboxylic acid]	< 100 nM	< 100 nM	100 to 1000 nM	< 100 nM	< 100 nM
NCCNC(=O)c1ccccc1C(=O)N[C@H]1Cc2cccc(C(=O)O)c2OB1O [Example 54, (R)-3-(2-(2-aminoethylcarbamoyl)benzamido)-2-hydroxy-3,4-dihydro-2H-benzo[e][1,2]oxaborinine-8-carboxylic acid]	100 to 1000 nM	100 to 1000 nM	1000 to 10000 nM	< 100 nM	1000 to 10000 nM
